Legend:
[1] = molecular target: Alpha-2A adrenergic receptor (Rattus norvegicus) (UniProt P22909); assay: rAa2 Cerep panel; settings: Compound concentration 10.0 uM
Rattus norvegicus = organism: Rattus norvegicus; assay: rNa channel Cerep panel; settings: Compound concentration 10.0 uM
[2] = molecular target: Vascular endothelial growth factor receptor 3 (Homo sapiens) (UniProt P35916); assay: fms-related tyrosine kinase 4 Millipore kinase panel; settings: Compound concentration 10.0 uM
[3] = molecular target: Glycogen synthase kinase-3 beta (Homo sapiens) (UniProt P49841); assay: glycogen synthase kinase 3 beta Millipore kinase panel; settings: Compound concentration 10.0 uM
[4] = molecular target: Muscarinic acetylcholine receptor M5 (Homo sapiens) (UniProt P08912); assay: hM5 Cerep panel; settings: Compound concentration 10.0 uM
[5] = molecular target: Serine/threonine-protein kinase PLK2 (Homo sapiens) (UniProt Q9NYY3); assay: polo-like kinase 2 Millipore kinase panel; settings: Compound concentration 10.0 uM
[6] = molecular target: Muscarinic acetylcholine receptor M3 (Homo sapiens) (UniProt P20309); assay: hM3 Cerep panel; settings: Compound concentration 10.0 uM
[7] = molecular target: Neurotensin receptor type 1 (Homo sapiens) (UniProt P30989); assay: hNT1 Cerep panel; settings: Compound concentration 10.0 uM
[8] = molecular target: Testis-specific serine/threonine-protein kinase 2 (Homo sapiens) (UniProt Q96PF2); assay: testis-specific serine kinase 2 Millipore kinase panel; settings: Compound concentration 10.0 uM
[9] = molecular target: Vascular endothelial growth factor receptor 2 (Homo sapiens) (UniProt P35968); assay: kinase insert domain receptor Millipore kinase panel; settings: Compound concentration 10.0 uM
[10] = molecular target: Cyclin-dependent kinase 5/CDK5 activator 1 (Homo sapiens) (UniProt Q00535+Q15078); assay: cyclin-dependent kinase 5 / p35 Millipore kinase panel; format: protein-complex assay; settings: Compound concentration 10.0 uM
Sequence of Cyclin-dependent kinase 5/CDK5 activator 1 (Homo sapiens) (Q00535 whole entry): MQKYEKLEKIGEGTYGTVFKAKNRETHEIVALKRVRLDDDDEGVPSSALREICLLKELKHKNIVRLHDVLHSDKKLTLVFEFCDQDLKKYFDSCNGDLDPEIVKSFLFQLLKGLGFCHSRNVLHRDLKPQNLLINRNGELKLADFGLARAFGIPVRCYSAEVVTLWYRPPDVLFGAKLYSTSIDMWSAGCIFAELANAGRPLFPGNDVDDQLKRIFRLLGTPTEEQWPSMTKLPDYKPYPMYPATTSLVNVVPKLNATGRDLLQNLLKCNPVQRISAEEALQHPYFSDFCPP
Sequence of Cyclin-dependent kinase 5/CDK5 activator 1 (Homo sapiens) (Q15078 99-307 partner limits assumed): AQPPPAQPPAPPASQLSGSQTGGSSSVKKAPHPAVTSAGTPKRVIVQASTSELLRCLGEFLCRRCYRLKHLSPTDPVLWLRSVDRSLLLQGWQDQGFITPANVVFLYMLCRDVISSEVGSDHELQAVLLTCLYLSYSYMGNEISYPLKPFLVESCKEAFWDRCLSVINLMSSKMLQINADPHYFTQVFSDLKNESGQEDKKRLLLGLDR

[11] = molecular target: cGMP-specific 3',5'-cyclic phosphodiesterase (Homo sapiens, UniProt O76074); assay: hPDE5A3 PDE scan
[12] = molecular target: Sodium-dependent dopamine transporter (Homo sapiens, UniProt Q01959); assay: hDAT Cerep panel; settings: Compound concentration 10.0 uM
[13] = molecular target: T1, Muscarinic acetylcholine receptor M1 (Homo sapiens) (UniProt P11229); assay: hM1 Cerep panel; settings: Compound concentration 10.0 uM
T1 sequence (whole entry): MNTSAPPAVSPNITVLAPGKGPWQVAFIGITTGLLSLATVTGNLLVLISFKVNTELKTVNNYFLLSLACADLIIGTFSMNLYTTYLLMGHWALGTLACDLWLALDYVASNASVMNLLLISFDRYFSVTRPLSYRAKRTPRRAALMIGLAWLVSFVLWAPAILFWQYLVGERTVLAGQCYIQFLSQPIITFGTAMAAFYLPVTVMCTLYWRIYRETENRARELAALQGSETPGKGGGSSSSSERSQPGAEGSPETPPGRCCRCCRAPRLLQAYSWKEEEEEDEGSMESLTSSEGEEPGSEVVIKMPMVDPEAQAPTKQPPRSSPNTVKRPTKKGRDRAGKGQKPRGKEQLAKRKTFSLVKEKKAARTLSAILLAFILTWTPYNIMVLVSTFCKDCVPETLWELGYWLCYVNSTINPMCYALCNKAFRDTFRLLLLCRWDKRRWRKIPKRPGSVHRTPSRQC

[14] = molecular target: T2, 5-hydroxytryptamine receptor 3A (Homo sapiens) (UniProt P46098); assay: h5HT3 Cerep panel; settings: Compound concentration 10.0 uM
T2 sequence (whole entry): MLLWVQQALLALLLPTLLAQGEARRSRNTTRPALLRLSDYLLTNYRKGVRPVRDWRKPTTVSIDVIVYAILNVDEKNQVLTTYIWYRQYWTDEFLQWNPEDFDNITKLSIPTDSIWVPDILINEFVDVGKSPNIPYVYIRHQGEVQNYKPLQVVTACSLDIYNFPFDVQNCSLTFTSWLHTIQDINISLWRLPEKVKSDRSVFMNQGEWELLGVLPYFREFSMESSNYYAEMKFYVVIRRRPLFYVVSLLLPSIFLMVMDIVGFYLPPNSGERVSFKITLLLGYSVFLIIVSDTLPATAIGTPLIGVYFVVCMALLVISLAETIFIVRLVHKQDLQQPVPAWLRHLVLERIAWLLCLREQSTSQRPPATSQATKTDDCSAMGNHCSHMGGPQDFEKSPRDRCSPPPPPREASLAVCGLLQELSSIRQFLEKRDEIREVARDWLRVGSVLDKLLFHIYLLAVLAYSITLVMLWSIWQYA

[15] = molecular target: Alpha-2B adrenergic receptor (Homo sapiens, UniProt P18089); assay: GPCRScan assay: inhibition of Alpha2B; design: radioligand conc. used [nm] 1.5 – 2.0, parental cells HEKT
Sequence of Alpha-2B adrenergic receptor (P18089 whole entry): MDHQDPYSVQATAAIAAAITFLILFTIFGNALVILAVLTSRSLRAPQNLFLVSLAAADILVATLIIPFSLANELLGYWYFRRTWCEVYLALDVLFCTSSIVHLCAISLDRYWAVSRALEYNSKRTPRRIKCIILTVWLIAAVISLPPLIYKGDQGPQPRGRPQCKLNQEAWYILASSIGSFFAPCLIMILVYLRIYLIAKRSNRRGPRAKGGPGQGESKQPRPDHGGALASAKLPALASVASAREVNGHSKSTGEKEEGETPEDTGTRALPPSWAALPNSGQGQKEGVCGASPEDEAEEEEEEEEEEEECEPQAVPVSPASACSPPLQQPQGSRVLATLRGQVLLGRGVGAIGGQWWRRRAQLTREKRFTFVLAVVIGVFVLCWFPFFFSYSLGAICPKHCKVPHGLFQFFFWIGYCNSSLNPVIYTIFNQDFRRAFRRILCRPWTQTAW

[16] = molecular target: Alpha-1A adrenergic receptor (Rattus norvegicus) (UniProt P43140); assay: rAa1 Cerep panel; settings: Compound concentration 10.0 uM
[17] = molecular target: Tyrosine-protein kinase Fgr (Homo sapiens) (UniProt P09769); assay: Gardner-Rasheed feline sarcoma viral (v-fgr) oncogene homolog Millipore kinase panel; settings: Compound concentration 10.0 uM
Sequence of Tyrosine-protein kinase Fgr (Homo sapiens) (P09769 2-529 limits assumed): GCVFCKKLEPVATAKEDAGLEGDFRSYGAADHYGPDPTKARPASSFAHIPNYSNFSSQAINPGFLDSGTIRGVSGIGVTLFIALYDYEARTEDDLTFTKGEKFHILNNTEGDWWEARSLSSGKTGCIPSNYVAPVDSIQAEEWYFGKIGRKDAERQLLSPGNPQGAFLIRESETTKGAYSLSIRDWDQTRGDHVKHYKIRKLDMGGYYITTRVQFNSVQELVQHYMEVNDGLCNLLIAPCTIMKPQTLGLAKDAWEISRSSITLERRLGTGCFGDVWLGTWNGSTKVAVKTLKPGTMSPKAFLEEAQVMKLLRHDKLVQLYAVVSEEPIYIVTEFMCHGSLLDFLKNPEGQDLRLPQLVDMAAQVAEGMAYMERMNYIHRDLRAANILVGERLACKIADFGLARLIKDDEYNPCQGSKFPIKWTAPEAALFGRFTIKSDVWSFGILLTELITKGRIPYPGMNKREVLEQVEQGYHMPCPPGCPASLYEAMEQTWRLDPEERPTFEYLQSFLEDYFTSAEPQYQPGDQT

[18] = molecular target: Mu-type opioid receptor (Homo sapiens) (UniProt P35372); assay: hOP3 Cerep panel; settings: Compound concentration 10.0 uM
Sequence of Mu-type opioid receptor (Homo sapiens) (P35372 whole entry): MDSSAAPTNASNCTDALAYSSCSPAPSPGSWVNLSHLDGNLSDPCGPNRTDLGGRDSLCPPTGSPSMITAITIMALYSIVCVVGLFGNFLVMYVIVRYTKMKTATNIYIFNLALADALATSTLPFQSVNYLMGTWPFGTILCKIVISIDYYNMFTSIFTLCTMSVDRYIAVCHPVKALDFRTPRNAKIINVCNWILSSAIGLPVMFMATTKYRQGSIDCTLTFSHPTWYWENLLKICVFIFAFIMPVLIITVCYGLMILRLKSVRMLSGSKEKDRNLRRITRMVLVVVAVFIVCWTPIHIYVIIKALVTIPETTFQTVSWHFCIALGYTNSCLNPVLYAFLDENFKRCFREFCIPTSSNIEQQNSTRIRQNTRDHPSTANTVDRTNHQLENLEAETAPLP

[19] = molecular target: Tyrosine-protein kinase receptor TYRO3 (Homo sapiens) (UniProt Q06418); assay: TYRO3 protein tyrosine kinase Millipore kinase panel; settings: Compound concentration 10.0 uM
[20] = molecular target: Glutamate receptor ionotropic, AMPA (Rattus norvegicus) (UniProt P19491+P19492+P19493+P19490); assay: rGlutamate (ionotropic) AMPA Cerep panel; format: protein-complex assay; settings: Compound concentration 10.0 uM
[21] = molecular target: Protein-tyrosine kinase 2-beta (Homo sapiens) (UniProt Q14289); assay: PTK2B protein tyrosine kinase 2 beta Millipore kinase panel; settings: Compound concentration 10.0 uM
Sequence of Protein-tyrosine kinase 2-beta (Homo sapiens) (Q14289 whole entry, looked up): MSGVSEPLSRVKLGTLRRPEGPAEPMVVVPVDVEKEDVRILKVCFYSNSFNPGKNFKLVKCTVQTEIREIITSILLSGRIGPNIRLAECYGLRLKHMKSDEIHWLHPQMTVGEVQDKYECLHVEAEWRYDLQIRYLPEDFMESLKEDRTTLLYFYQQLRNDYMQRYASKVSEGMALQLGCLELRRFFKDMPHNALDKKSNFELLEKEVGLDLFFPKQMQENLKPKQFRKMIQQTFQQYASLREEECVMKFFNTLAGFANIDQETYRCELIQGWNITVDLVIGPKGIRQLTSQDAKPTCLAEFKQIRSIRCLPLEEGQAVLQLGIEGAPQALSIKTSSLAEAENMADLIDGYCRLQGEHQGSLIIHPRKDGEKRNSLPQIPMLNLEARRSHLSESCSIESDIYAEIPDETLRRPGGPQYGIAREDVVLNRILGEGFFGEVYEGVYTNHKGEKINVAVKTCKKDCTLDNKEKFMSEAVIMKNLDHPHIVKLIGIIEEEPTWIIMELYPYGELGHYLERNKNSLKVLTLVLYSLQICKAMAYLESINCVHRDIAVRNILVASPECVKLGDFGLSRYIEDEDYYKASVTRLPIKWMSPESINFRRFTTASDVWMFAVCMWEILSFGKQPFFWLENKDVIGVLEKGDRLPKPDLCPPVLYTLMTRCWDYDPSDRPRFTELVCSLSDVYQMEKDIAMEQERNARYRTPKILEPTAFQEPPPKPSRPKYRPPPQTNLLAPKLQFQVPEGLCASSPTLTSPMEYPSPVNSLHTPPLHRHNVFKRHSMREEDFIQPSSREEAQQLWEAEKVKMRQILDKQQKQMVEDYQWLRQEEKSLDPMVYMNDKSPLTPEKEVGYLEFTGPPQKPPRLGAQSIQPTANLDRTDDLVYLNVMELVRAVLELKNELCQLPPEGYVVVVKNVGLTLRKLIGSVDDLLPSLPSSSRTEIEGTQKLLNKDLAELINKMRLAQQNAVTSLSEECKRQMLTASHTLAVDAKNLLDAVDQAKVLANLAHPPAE

[22] = molecular target: Serine/threonine-protein kinase PLK3 (Homo sapiens) (UniProt Q9H4B4); assay: polo-like kinase 3 Millipore kinase panel; settings: Compound concentration 10.0 uM
[23] = molecular target: Macrophage colony-stimulating factor 1 receptor (Homo sapiens) (UniProt P07333); assay: colony stimulating factor 1 receptor Millipore kinase panel; settings: Compound concentration 10.0 uM
Sequence of Macrophage colony-stimulating factor 1 receptor (Homo sapiens) (P07333 whole entry): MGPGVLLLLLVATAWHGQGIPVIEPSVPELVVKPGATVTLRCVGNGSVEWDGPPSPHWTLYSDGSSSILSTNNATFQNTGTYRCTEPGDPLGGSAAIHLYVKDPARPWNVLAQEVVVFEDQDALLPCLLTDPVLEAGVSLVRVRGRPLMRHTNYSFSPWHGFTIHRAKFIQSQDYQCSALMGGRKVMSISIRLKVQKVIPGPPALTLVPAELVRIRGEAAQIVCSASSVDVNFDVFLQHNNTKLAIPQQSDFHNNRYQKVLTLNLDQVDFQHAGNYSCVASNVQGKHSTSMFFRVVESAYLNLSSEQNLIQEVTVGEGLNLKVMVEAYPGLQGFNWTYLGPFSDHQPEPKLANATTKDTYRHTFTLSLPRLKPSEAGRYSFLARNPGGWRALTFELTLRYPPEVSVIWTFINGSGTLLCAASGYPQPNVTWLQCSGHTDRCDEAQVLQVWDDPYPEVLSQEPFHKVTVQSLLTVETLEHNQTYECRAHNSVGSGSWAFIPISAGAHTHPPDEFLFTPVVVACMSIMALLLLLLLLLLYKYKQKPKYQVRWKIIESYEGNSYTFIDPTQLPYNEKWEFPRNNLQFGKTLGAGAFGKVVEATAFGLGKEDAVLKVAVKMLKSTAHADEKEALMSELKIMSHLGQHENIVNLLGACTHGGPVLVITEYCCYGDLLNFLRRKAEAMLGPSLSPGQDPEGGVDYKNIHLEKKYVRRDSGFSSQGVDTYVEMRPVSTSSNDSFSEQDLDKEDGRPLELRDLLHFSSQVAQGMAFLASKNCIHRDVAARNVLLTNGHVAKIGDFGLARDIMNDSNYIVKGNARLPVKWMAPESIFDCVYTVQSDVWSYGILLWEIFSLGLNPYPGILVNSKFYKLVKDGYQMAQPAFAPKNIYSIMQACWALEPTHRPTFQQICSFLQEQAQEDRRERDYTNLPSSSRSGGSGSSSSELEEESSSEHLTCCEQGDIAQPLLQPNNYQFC

[24] = molecular target: cAMP and cAMP-inhibited cGMP 3',5'-cyclic phosphodiesterase 10A (Homo sapiens, UniProt Q9Y233); assay: hPDE10A2 PDE scan
[25] = molecular target: GABA-A receptor; anion channel; assay: GPCRScan assay: inhibition of GABAA; format: protein-complex assay, Rattus norvegicus; design: radioligand conc. used [nm] 9.50 – 25.0, parental cells brain tissue
[26] = molecular target: Alpha-2A adrenergic receptor (Homo sapiens) (UniProt P08913); settings: Compound concentration 10.0 uM
Sequence of Alpha-2A adrenergic receptor (Homo sapiens) (P08913 whole entry): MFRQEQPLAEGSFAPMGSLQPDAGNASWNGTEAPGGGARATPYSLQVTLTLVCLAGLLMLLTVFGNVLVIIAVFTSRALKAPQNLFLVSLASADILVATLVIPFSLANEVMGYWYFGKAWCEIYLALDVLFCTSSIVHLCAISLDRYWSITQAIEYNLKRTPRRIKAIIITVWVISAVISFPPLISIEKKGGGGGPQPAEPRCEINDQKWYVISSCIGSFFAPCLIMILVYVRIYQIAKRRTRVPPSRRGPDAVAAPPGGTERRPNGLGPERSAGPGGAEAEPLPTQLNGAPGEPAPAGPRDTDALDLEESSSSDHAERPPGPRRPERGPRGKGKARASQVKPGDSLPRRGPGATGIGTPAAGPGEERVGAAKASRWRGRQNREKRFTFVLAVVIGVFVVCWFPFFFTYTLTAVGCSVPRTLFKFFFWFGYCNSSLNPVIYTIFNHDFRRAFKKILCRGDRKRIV

Sequence of Alpha-2A adrenergic receptor (Rattus norvegicus) (P22909 whole entry): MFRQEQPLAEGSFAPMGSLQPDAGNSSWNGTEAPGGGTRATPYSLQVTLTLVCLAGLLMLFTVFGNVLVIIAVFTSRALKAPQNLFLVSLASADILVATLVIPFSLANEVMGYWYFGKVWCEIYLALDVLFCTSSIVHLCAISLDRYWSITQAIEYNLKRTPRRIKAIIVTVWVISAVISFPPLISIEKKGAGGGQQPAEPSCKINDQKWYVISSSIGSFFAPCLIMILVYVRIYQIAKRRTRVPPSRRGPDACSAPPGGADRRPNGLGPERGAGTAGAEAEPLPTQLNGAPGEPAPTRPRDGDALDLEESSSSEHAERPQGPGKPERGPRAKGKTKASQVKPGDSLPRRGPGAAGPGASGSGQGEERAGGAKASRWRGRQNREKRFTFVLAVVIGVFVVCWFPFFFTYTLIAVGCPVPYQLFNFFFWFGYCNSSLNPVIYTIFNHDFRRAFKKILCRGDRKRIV

With `COCCc1ccc(-c2c(C)nc3c(N4CCOCC4)ccnn23)cn1` [JNJ-42396302] as the molecule, how does the effect [1] read?
Its effect is 5.2%.

And the effect (Rattus norvegicus)?
Its effect is -5.55%.

What about the inhibition [2] of the same molecule?
The inhibition was -4%.

And the inhibition [3]?
The inhibition was -1%.

What about the effect [4] of the same molecule?
The effect was -0.55%.

And the inhibition [5]?
Its inhibition is -7%.

And the effect [6]?
The effect was 13.9%.

And the effect [7]?
The effect was 12.3%.

And the inhibition [8]?
The inhibition was 1%.

And the inhibition [9]?
The inhibition was -4%.

What about the inhibition [10] of the same molecule?
Its inhibition is -5%.

And the Ki [11]?
Its Ki is 8.5 µM.

And the effect [12]?
The effect was 4.5%.

What about the effect [13] of the same molecule?
Its effect is 2.2%.

And the effect [14]?
The effect was 3.35%.

What about the Ki [15] of the same molecule?
Its Ki is greater than 10 µM.

What about the pKi [15] of the same molecule?
Its pKi is less than 5.

And the effect [16]?
Its effect is -2.55%.

What about the inhibition [17] of the same molecule?
Its inhibition is 7%.

And the effect [18]?
The effect was 2.15%.

What about the inhibition [19] of the same molecule?
Its inhibition is 1%.

And the effect [20]?
The effect was 7.7%.

What about the inhibition [21] of the same molecule?
The inhibition was -4%.

And the inhibition [22]?
Its inhibition is -2%.

And the inhibition [23]?
The inhibition was 4%.

And the Ki [24]?
Its Ki is 0.013 µM.

For `c1ccc(C2CCN(c3cnc4c(N5CCOCC5)nccn34)CC2)cc1`, which Ki [25] is on record?
The Ki was 1.82 µM.

And the inhibition [26]?
The inhibition was 34.6%.

Source: ChEMBL document CHEMBL4800727 (2021)
